Test results reported in patent publication US7998924B2, “Compounds that bind to p185 and methods of using the same” (The Trustees of The University of Pennsylvania, priority 2001, dated 2011).
pIC50, pKd: −log10 of the molar value. Where two headings read alike, the source gives them in different places.

Key:
HER2 receptor [1] = biological target: T1, HER2 receptor (Homo sapiens, UniProt P04626); test: Biacore (surface plasmon resonance) binding of peptides to immobilized HER2
T1 construct: Recombinant purified HER2 receptor composed of the ectodomain of HER2 fused to the Fc of human IgG; purchased Xcyte Therapeutics, Seattle, Wash; (provided by Dr. Che Law; a gift, not a catalogue product)
T1 sequence (P04626 23-652 limits assumed): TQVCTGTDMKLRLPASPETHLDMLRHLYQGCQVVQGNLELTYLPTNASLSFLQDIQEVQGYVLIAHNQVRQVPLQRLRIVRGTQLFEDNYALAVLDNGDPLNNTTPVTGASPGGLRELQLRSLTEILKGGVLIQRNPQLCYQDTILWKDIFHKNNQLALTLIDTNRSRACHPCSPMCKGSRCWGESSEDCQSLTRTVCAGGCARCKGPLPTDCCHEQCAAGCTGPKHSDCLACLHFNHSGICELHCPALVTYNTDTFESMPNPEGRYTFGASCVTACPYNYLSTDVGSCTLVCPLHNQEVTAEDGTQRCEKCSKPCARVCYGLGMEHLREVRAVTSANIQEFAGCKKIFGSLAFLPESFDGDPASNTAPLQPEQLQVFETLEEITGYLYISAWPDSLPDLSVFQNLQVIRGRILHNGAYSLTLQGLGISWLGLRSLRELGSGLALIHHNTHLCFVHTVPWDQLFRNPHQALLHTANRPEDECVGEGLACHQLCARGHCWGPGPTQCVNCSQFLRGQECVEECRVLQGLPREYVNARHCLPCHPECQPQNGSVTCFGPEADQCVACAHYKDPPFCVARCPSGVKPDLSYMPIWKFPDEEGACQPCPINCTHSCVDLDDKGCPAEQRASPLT
From the text: Binding of AHNP has been studies by means of surface plasmon resonance (Biacore) technology. In Biacore experiments, one of the interacting molecules (termed the ligand) is immobilized on the sensor surface, and the other interactant (termed the analyte) is continuously flown over that surface in a micro-flow cell. The interaction between the ligand and the analyte are monitored using a light source that is reflected at the immobilized chip. Binding of the analyte to the immobilized ligand changes the resonance angle of the reflected light due to changes in the refractive index of the surface. The response is plotted in real time in the form of sensorgram curves. The advantage with this approach is its sensitivity, ease of use, and ability to perform experiments with few microgram quantities of proteins and peptides. In addition, the kinetic binding studies reveal association and disassociation rates of the analyte which may be more relevant for understanding the pharmacokinetics of drug-receptor interactions.
Binding experiments were performed with the surface plasmon resonance based biosensor instrument Biacore 3000 (Biacore AB, Uppsala, Sweden) at 25° C. Recombinant purified HER2 receptor composed of the ectodomain of HER2 fused to the Fc of human IgG was provided by Dr. Che Law, Xcyte Therapeutics, Seattle, Wash. Immobilization of HER2 in the sensor surface was performed following the standard amine coupling procedure according to manufacturer's instructions. Briefly, 35 pit of a solution containing 0.2M N-ethyl-N-(dimethylaminopropyl) carbodiimide (EDC) and 0.05 M N-hydroxysuccinimide (NHS) were injected at a flow rate of 5 μL/min to activate carboxyl groups on the sensor chip surface. HER2 (40 ng/mL in 10 mM NaOAc buffer, pH 5.0) was flowed over the chip surface at a flow rate of 20 μL/min until the desired level bound protein was reached. Unreacted protein was washed out and unreacted activated groups were blocked by the injection of 35 μL of 1 M ethanolamine at 5 μL/min. […] A reference surface was generated simultaneously under the same conditions but without HER2 injection and used as a blank to correct for instrument and buffer artifacts. Peptides were injected at variable concentrations at 20 μL/min flow rate and binding to the HER2 receptor immobilized on the chip was monitored in real time. Each sensorgram consists of an association phase (first 240 s), reflecting binding of the injected peptide to the receptor, followed by a dissociation phase (300 s), during which the running buffer is passed over the chip and the bound peptide is being washed off the receptor surface.

HER2 receptor [2] = biological target: T1, HER2 receptor; test: Biacore competition: AHNP preinjection inhibits rhumAb 4D5 binding to immobilized HER2
Experimental: It was shown earlier that the AHNP peptide can mimic some functions of the anti-HER2/neu antibody, rhumAb 4135 in vitro and in vivo (see reference 40 below). […] To that end, injections of AHNP at variable concentrations (from 0 to 90 μM) were followed by injections of rhumAb 4135 at a constant 1 nM concentration, using the “Coinject” mode of the Biacore instrument.
Binding experiments were performed with the surface plasmon resonance based biosensor instrument Biacore 3000 (Biacore AB, Uppsala, Sweden) at 25° C. Recombinant purified HER2 receptor composed of the ectodomain of HER2 fused to the Fc of human IgG was provided by Dr. Che Law, Xcyte Therapeutics, Seattle, Wash. Immobilization of HER2 in the sensor surface was performed following the standard amine coupling procedure according to manufacturer's instructions. Briefly, 35 pit of a solution containing 0.2M N-ethyl-N-(dimethylaminopropyl) carbodiimide (EDC) and 0.05 M N-hydroxysuccinimide (NHS) were injected at a flow rate of 5 μL/min to activate carboxyl groups on the sensor chip surface. HER2 (40 ng/mL in 10 mM NaOAc buffer, pH 5.0) was flowed over the chip surface at a flow rate of 20 μL/min until the desired level bound protein was reached. […] Peptides were injected at variable concentrations at 20 μL/min flow rate and binding to the HER2 receptor immobilized on the chip was monitored in real time. […]

T6-17 cells = system: T6-17 cells
Experimental: (See reference 46 below.) HER2-expressing transformed tumor cells (T6-17) were used for this purpose. […] Each value represents an average of at least four samples.
The MTT assay has been used for measuring cell growth as previously described in ref 446. Briefly, T6-17 cells were seeded in 96-well plates overnight in DMEM containing 10% FBS (1000 per well). T6-17 is derived from NIH3T3 by overexpressing the human HER2 receptor. Cells were cultured in 100 μL of fresh medium containing 1 μg/mL of peptides for 48 h. […] A total of 25 μL of MTT solution (5 mg/mL in PBS) was added to each well, and after 2 h of incubation at 37° C., 100 μA of the extraction buffer (20% w/v of SDS, 50% N,N-dimethyl formamide, pH 4.7) were added. After an overnight incubation at 37° C., the optical density at 600 rim was measured using an ELISA reader.

[3] = Peptide solubility in PBS buffer at 1 mg/mL; format: physicochemical; settings: pH 7.4, 1 mg/mL
Experimental: These peptides could be readily dissolved in the PBS buffer, pH 7.4, at 1 mg/mL concentration without adjustment of pH.

CSCC[C@H](NC(=O)[C@H](Cc1ccc(O)cc1)NC(=O)[C@@H]1CSSC[C@H](NC(=O)[C@@H](N)Cc2ccccc2)C(=O)N[C@@H](CC(=O)O)C(=O)NCC(=O)N[C@@H](Cc2ccccc2)C(=O)N[C@@H](Cc2ccc(O)cc2)C(=O)N[C@@H](C)C(=O)N1)C(=O)N[C@@H](CC(=O)O)C(=O)N[C@H](C(N)=O)C(C)C [Peptide 1]
koff (HER2 receptor [1]): 0.000453 s⁻¹
kon (HER2 receptor [1]): 1410 M⁻¹ s⁻¹
receptor-binding affinity (in words) (HER2 receptor [1]; Biacore): submicromolar
pKd (HER2 receptor [1]; Biacore, immobilized HER2, 25° C., read-out: binding to HER2 KD): 6.49
koff (HER2 receptor [1]; read-out: binding to HER2 koff): 0.000453 s⁻¹
kon (HER2 receptor [1]; read-out: binding to HER2 kon): 1410 M⁻¹ s⁻¹
pIC50 (HER2 receptor [2]): 5.47
% inhibition of T6-17 cell proliferation in MTT assays (T6-17 cells; 1 μg/mL of peptides for 48 h): 35.5%
inhibition of growth of T6-17 cells (in words) (T6-17 cells; 0.01 to 10 μg/mL): dose-dependently
solubility [3]: < 1000 µg/mL
